{
  "source": "patent US20100255117A1",
  "about": "“METHODS AND COMPOSITIONS FOR THE TREATMENT OF CANCER” (The Johns Hopkins University, priority 2007, published 2010)",
  "key": {"A549 cells [1]": {"system": "A549 cells", "assay": "Clonogenic survival after ionizing radiation, A549", "type": "cell-based, human", "settings": "A549-NRF2 shRNA cells", "protocol": "(§1) Clonogenic assays: Exponentially growing cells were counted, diluted and seeded in triplicate at 1000 cells per culture dish (100 mm). Cells were incubated for 24 h in a humidified CO2 incubator at 37° C., exposed to high dose rate (0.68Gy/min) radiation using a Gamma cell 40 ^137Cs irradiator (Atomic Energy of Canada, Ltd). To assess clonogenic survival following radiation exposure, cell cultures were incubated in complete growth medium at 37° C. for 14 days and then stained with 50% methanol-crystal violet solution. Only colonies with more than 50 cells were counted, and the surviving fraction was calculated and compared to the control."}, "H460 cells": {"system": "H460 cells", "assay": "Clonogenic survival after ionizing radiation, H460", "type": "cell-based, human", "settings": "H460-NRF2 shRNA cells", "protocol": "as §1"}, "ROS": {"system": "ROS", "assay": "Measurement of ROS levels (c-H2DCFDA, flow cytometry)", "type": "cell-based, human", "settings": "NAC for 30 mins", "protocol": "Measurement of ROS levels: Cells were incubated with 10 μM c-H2DCFDA (molecular probes, Invitrogen, CA) for 30 mins at 37° C. to assess the ROS mediated oxidation to the fluorescent compound c-H2DCF. Fluorescence of oxidized c-H2DCF was measured at an excitation wavelength of 480 nm and an emission wavelength of 525 nm using a FAC Scan flow cytometer (Becton Dickinson)."}, "A549-C8-luc cells": {"system": "A549-C8-luc cells", "assay": "Orthotopic A549-C8-luc lung tumor model, inhaled siRNA with or without carboplatin", "type": "in vivo, SCID-Beige mice", "settings": "carboplatin 30 mg/kg i.p. twice/week, 4 weeks", "protocol": "Experimental Lung Metastasis: In experimental metastasis experiments, 2×10^6 A549-C8-luc cells were injected into SCID-Beige mice (Charles River, Mass.) intravenously. For delivery of siRNA into lung tumors, 100 μg of siRNA duplex diluted in PBS was aerosolized using a nebulizer. Mice were given three doses of siRNA (100 μg/dose) every week, for 4 weeks, using a nebulizer. Intraperitoneal injections of carboplatin were given at a dose of 30 mg/kg body weight twice/week. All experimental animal protocols were performed in accordance with guidelines approved by the animal care committee at the Johns Hopkins University Bloomberg School of Public Health.\nIn Vivo Imaging: For luminescent imaging, animals inoculated with A549-C8-luc cells, which express a luciferase reporter gene, were anesthetized and injected intraperitoneally with 250 ul of luminescent substrate (15 mg/ml stock) D-Luciferin Firefly (Xenogen Cat# XR-1001). The animals were then imaged and analyzed by using the Xenogen IVIS Optical Imaging Device in the Johns Hopkins Oncology Center."}, "A549 cells [2]": {"system": "A549 cells", "assay": "A549 subcutaneous tumor xenograft, intratumoral siRNA with or without carboplatin/radiation", "type": "in vivo, athymic nude mice", "protocol": "Tumor Xenografts and siRNA Treatment: We injected A549 cells (5×10^6) and H460 cells (2×10^6) subcutaneously into the hind leg of male athymic nude mice and measured the tumor dimensions by caliper once per week. The tumor volumes were calculated using the following formula: [length (mm)×width (mm)×width (mm)×0.52]. For in vivo delivery of siRNA into tumors, siRNA duplexes diluted in PBS were injected into the tumors using insulin syringes at a concentration of 10 μg of siRNA/50 mm^3 of tumor volume. Intraperitoneal injections of carboplatin were given at a dose of 40 mg/kg body weight. Both siRNA and carboplatin were administered twice weekly for 4 weeks. Upon termination, tumors were harvested and weighted. For radiation exposure, mice with subcutaneous tumors were exposed to high dose rate radiation (2 dose of 3Gy each) using a Gamma cell 40 ^137Cs irradiator (Atomic Energy of Canada, Ltd).\nStatistical Analysis—Statistical comparisons were performed by Student's t-tests or Wilcoxon rank-sum test. A value of p<0.05 was considered statistically significant. Tumor weights and changes in tumor volume were summarized using descriptive statistics. Differences in tumor measures between treatment groups were examined using linear regression models with generalized estimating equations (GEE). The distributions of both tumor measurements were skewed, so log transformations were used."}},
  "data": [
    {"smiles": "CC(=O)N[C@@H](CS)C(=O)O", "note": "[NAC, N-acetyl cysteine]", "values": [
      {"measurement": "cell survival after radiation with NAC pretreatment", "setting": "A549 cells [1]", "result": "significantly increased cell survival"},
      {"measurement": "cell survival after radiation with NAC pretreatment", "setting": "H460 cells", "result": "significantly increased cell survival"},
      {"measurement": "reduction of ROS production / mean fluorescent intensity", "setting": "ROS; A549-NRF2shRNA cells", "result": 85, "unit": "%"},
      {"measurement": "reduction of ROS production / mean fluorescent intensity", "setting": "ROS; H460-NRF2shRNA cells", "result": 75, "unit": "%"}
    ]},
    {"smiles": "N.N.O=C([O-])C1(C(=O)[O-])CCC1.[Pt+2]", "note": "[carboplatin]", "values": [
      {"measurement": "ratio of lung weights, siRNA vs siRNA+carboplatin treated tumors", "setting": "A549-C8-luc cells", "result": 1.73},
      {"measurement": "ratio of differences in change in tumor volume, siRNA+carboplatin vs siRNA", "setting": "A549 cells [2]; experiment 1", "result": 0.45},
      {"measurement": "ratio of tumor weights, siRNA vs siRNA+carboplatin treated tumors", "setting": "A549 cells [2]; experiment 1, carboplatin 40 mg/kg i.p. twice weekly", "result": 2.13},
      {"measurement": "ratio of differences in change in tumor volume, siRNA+carboplatin vs siRNA+radiation", "setting": "A549 cells [2]; experiment 1, not significant", "result": 0.77},
      {"measurement": "ratio of tumor weights, siRNA+carboplatin vs siRNA treated tumors", "setting": "A549 cells [2]; second experiment", "result": 0.55}
    ]}
  ]
}
